Assay type in all cases: biochemical
For one assay, the target named is hCDK1/B (Homo sapiens, UniProt P06493). Put plainly: hCDK1/B.
A further assay has as its target CDK4 (Homo sapiens, UniProt P11802). Description: CDK4 HTRF.
The target in another assay is CDK2 cyA (Homo sapiens, UniProt P24941). Put plainly: CDK2 cyA IMAP.
Where [1] appears, read: Table 2, read-out: CDK4 HTRF/ IC50.
The mark [2] stands for this setting: Table 2, read-out: CDK2cyA IMAP/ IC50.
Setting [3] is: Table 1, read-out: CDK2 cyA IMAP.

Where two headings read alike, the source gives them in different places.

Sequence of hCDK1/B (P06493 whole entry): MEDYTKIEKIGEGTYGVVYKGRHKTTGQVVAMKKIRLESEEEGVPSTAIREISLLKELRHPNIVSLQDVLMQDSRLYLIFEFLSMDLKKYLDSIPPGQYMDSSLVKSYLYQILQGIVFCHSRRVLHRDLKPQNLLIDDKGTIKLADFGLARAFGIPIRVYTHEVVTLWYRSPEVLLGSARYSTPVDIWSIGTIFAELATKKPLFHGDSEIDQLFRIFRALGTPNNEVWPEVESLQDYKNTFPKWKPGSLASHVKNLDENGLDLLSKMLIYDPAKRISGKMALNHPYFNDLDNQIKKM
Sequence of hCDK1/B (P14635 whole entry partner): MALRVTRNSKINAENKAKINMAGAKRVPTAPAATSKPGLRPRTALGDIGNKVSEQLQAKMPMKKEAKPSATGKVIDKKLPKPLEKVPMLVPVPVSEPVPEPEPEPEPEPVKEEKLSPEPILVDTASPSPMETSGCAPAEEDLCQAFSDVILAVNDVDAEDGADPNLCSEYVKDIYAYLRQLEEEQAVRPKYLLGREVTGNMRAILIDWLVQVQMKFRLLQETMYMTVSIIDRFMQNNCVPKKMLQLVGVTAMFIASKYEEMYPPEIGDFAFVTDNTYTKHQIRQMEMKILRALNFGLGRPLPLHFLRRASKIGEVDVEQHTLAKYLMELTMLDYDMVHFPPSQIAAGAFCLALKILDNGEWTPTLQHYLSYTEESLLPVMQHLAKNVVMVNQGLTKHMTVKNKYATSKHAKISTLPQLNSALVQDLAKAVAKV
Sequence of CDK4 (P11802 whole entry): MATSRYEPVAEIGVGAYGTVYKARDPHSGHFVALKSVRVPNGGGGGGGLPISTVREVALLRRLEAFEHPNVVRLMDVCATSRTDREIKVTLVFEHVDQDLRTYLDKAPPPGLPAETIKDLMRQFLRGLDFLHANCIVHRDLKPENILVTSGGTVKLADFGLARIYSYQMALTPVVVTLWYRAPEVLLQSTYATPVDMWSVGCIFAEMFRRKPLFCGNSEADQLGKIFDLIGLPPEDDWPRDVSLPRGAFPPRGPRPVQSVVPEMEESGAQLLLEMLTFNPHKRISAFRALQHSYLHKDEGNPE
Sequence of CDK4 (P24385 whole entry partner): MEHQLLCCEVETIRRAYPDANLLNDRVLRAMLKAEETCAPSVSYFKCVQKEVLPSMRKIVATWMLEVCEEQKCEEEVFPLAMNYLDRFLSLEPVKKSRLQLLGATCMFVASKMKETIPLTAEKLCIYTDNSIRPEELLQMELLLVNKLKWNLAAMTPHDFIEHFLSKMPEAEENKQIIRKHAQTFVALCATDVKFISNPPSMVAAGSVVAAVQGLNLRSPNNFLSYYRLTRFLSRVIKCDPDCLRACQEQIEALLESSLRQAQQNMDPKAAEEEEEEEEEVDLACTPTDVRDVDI

As for `Cc1n[nH]cc1-c1ccnc(NC2CCCCC2)n1` [Example 84], the values for the IC50 on hCDK1/B (Table 2), at CDK4 (setting [1]) and at CDK2 cyA (setting [2]) were less than 5 µM, less than 1 µM and less than 5 µM, respectively.

Regarding `CC(C)c1[nH]ncc1-c1ccnc(NCc2ccccc2C(F)(F)F)c1` [Example 50], the IC50 is less than 5 µM on hCDK1/B (Table 1); less than 1 µM at CDK4 (Table 1, read-out: CDK4 HTRF); less than 5 µM at CDK2 cyA (setting [3]).

Turning to `Cc1n[nH]cc1-c1ccnc(NC2Cc3ccccc3C2)n1` [Example 125], the IC50 on hCDK1/B (Table 2) is less than 5 µM; on CDK4 (setting [1]), less than 0.5 µM; at CDK2 cyA (setting [2]), less than 5 µM.

Regarding `Cc1cnc(NC2CCN(C)CC2)nc1-c1c[nH]nc1C(C)C` [Example 184], the IC50 at hCDK1/B (Table 2) was less than 5 µM; on CDK4 (setting [1]), less than 0.5 µM; at CDK2 cyA (setting [2]) it was less than 5 µM.

As for `CC(C)CCNc1cc(-c2cn[nH]c2C(C)C)ccn1` [Example 12], the IC50 was less than 5 µM at hCDK1/B (Table 1); less than 1 µM on CDK4 (Table 1, read-out: CDK4 HTRF); less than 5 µM at CDK2 cyA (setting [3]).

For the molecule `CC(C)CNc1cc(-c2cn[nH]c2C(C)C)ccn1` [Example 9], the IC50 on hCDK1/B (Table 1) was less than 0.5 µM; at CDK4 (Table 1, read-out: CDK4 HTRF) it was less than 0.5 µM; at CDK2 cyA (setting [3]) it was less than 0.5 µM.

`CC(CN(C)C)Nc1nccc(-c2c[nH]nc2C(C)C)n1` (stereo not drawn) [Example 143]: the IC50 is less than 10 µM at hCDK1/B (Table 2), less than 0.5 µM on CDK4 (setting [1]) and no less than 15 µM on CDK2 cyA (setting [2]).

For `c1cc(-c2cn[nH]c2C2CCCC2)cc(NC2CCCCC2)n1` [Example 54], the IC50 against hCDK1/B (Table 1) is less than 5 µM; on CDK4 (Table 1, read-out: CDK4 HTRF), less than 0.5 µM; at CDK2 cyA (setting [3]), less than 1 µM.

With `Cc1cccc(CNc2cc(-c3cn[nH]c3C3CCCC3)ccn2)c1` [Example 62], the IC50 against hCDK1/B (Table 1) is less than 5 µM; on CDK4 (Table 1, read-out: CDK4 HTRF), less than 5 µM; on CDK2 cyA (setting [3]), less than 5 µM.

`Cc1ccccc1CNc1cc(-c2cn[nH]c2C2CC2)ccn1` [Example 68]: the IC50 against hCDK1/B (Table 1) was less than 5 µM; on CDK4 (Table 1, read-out: CDK4 HTRF), less than 0.1 µM; at CDK2 cyA (setting [3]) it was less than 5 µM.

For `c1cc(-c2cn[nH]c2C2CCCC2)cc(NC2CCCCCC2)n1` [Example 55], the IC50 against hCDK1/B (Table 1) is less than 5 µM; at CDK4 (Table 1, read-out: CDK4 HTRF) it was less than 0.5 µM; at CDK2 cyA (setting [3]) it was less than 1 µM.

Regarding `CCC(CC)c1[nH]ncc1-c1ccnc(NC2CCN(C(=O)OC(C)(C)C)CC2)c1` [Example 72], the IC50 against hCDK1/B (Table 1) was less than 1 µM; on CDK4 (Table 1, read-out: CDK4 HTRF), less than 1 µM; on CDK2 cyA (setting [3]), less than 5 µM.

`CCC(CC)c1[nH]ncc1-c1ccnc(NC2CCc3ccccc32)c1` (stereo not drawn) [Example 74]: the IC50 against hCDK1/B (Table 1) is less than 5 µM; at CDK4 (Table 1, read-out: CDK4 HTRF), less than 5 µM; at CDK2 cyA (setting [3]), less than 5 µM.

For the molecule `Cc1n[nH]cc1-c1ccnc(NC2CCN(Cc3ccccc3)C2)n1` (stereo not drawn) [Example 114], the IC50 at hCDK1/B (Table 2) is less than 10 µM; at CDK4 (setting [1]), less than 1 µM; on CDK2 cyA (setting [2]) it was less than 10 µM.

For `CC(C)c1[nH]ncc1-c1ccnc(NCc2ccc(F)cc2)c1` [Example 30], the IC50 was less than 5 µM at hCDK1/B (Table 1); less than 5 µM at CDK4 (Table 1, read-out: CDK4 HTRF); less than 5 µM on CDK2 cyA (setting [3]).

As for `Cc1ccccc1CNc1cc(-c2cn[nH]c2C2CCCC2)ccn1` [Example 60], the IC50 against hCDK1/B (Table 1) was less than 5 µM; at CDK4 (Table 1, read-out: CDK4 HTRF) it was less than 0.5 µM; on CDK2 cyA (setting [3]) it was less than 5 µM.

For the molecule `CCC(C)Nc1nccc(-c2c[nH]nc2C(C)C)n1` (stereo not drawn) [Example 171], the IC50 was less than 0.5 µM on hCDK1/B (Table 2), less than 0.05 µM on CDK4 (setting [1]) and less than 0.5 µM at CDK2 cyA (setting [2]).

Consider `c1ccc2c(c1)CCC2Nc1cc(-c2cn[nH]c2C2CC2)ccn1` (stereo not drawn) [Example 70], for which the IC50 at hCDK1/B (Table 1) was less than 5 µM; at CDK4 (Table 1, read-out: CDK4 HTRF) it was less than 0.5 µM; at CDK2 cyA (setting [3]), less than 5 µM.

`CC(C)c1[nH]ncc1-c1ccnc(NCC2CCCCC2)c1` [Example 6]: the IC50 is less than 5 µM on hCDK1/B (Table 1); less than 5 µM at CDK4 (Table 1, read-out: CDK4 HTRF); less than 5 µM at CDK2 cyA (setting [3]).

As for `CC(C)c1[nH]ncc1-c1ccnc(NCC2CCCO2)c1` (stereo not drawn) [Example 13], the IC50 was less than 5 µM at hCDK1/B (Table 1); less than 5 µM on CDK4 (Table 1, read-out: CDK4 HTRF); less than 10 µM on CDK2 cyA (setting [3]).

`CC(CCc1ccccc1)Nc1nccc(-c2c[nH]nc2C(C)C)n1` (stereo not drawn) [Example 155]: the values for the IC50 against hCDK1/B (Table 2), on CDK4 (setting [1]) and at CDK2 cyA (setting [2]) were less than 5 µM, less than 1 µM and less than 5 µM, respectively.

With `CC(C)c1n[nH]cc1-c1ccnc(NCCCNC2CCCCC2)n1` [Example 148], the figures for the IC50 against hCDK1/B (Table 2), at CDK4 (setting [1]) and at CDK2 cyA (setting [2]) were less than 15 µM, less than 5 µM and less than 10 µM, respectively.

As for `CC(C)c1n[nH]cc1-c1nc(NC2CCN(C)CC2)ncc1Br` [Example 180], the IC50 on hCDK1/B (Table 2) was less than 5 µM; at CDK4 (setting [1]), less than 1 µM; at CDK2 cyA (setting [2]), less than 5 µM.

Turning to `CC(C)COCCCNc1nccc(-c2c[nH]nc2C(C)C)n1` [Example 150], the IC50 on hCDK1/B (Table 2) was less than 1 µM; on CDK4 (setting [1]), less than 0.5 µM; on CDK2 cyA (setting [2]) it was less than 5 µM.

On to `Cc1ccccc1CNc1nccc(-c2c[nH]nc2C)n1` [Example 137], for which the IC50 was less than 10 µM on hCDK1/B (Table 2), less than 5 µM at CDK4 (setting [1]) and less than 10 µM at CDK2 cyA (setting [2]).

`CC(C)c1[nH]ncc1-c1ccnc(NCCc2ccccn2)c1` [Example 29]: the IC50 was less than 10 µM on hCDK1/B (Table 1); less than 1 µM on CDK4 (Table 1, read-out: CDK4 HTRF); less than 5 µM at CDK2 cyA (setting [3]).

These data come from US8367687B2, “Pyrazole derivatives” (Novartis AG, priority 2007, dated 2013).
